From ChEMBL document CHEMBL1155147, “Interdomain loop mutation Asp190Cys of the tetracycline efflux transporter TetA(B) decreases affinity for substrate” (2007)
Residue numbers refer to the chain shown, from its start. Numbers in names are those of the source. ≈ marks a conversion by molar mass, not a printed value.

How the values were obtained:
Escherichia coli [1] = assay: Antibacterial activity against intact Escherichia coli DH5alpha; type: functional
Escherichia coli [2] = assay: Antibacterial activity against intact Escherichia coli DH5alpha expressing tetracycline efflux transporter TetA(B) Asp190Cys mutant gene; type: functional
Escherichia coli [3] = assay: Antibacterial activity against intact Escherichia coli DH5alpha expressing wild-type tetracycline efflux transporter TetA(B) gene; type: functional
[4] = substrate: CN(C)[C@@H]1C(O)=C(C(N)=O)C(=O)[C@@]2(O)C(O)=C3C(=O)c4c(O)cccc4[C@@](C)(O)[C@H]3C[C@@H]12; assay: Activity of tetracycline efflux transporter TetA(B) in Escherichia coli DH5alpha membrane vesicles assessed as [3H]tetracycline uptake per mg of protein; type: cell membranes
[5] = substrate: CN(C)[C@@H]1C(O)=C(C(N)=O)C(=O)[C@@]2(O)C(O)=C3C(=O)c4c(O)cccc4[C@@](C)(O)[C@H]3C[C@@H]12; assay: Activity of tetracycline efflux transporter TetA(B) in Escherichia coli DH5alpha membrane vesicles assessed as [3H]tetracycline uptake; type: cell membranes
[6] = substrate: CN(C)[C@@H]1C(O)=C(C(N)=O)C(=O)[C@@]2(O)C(O)=C3C(=O)c4c(O)cccc4[C@@](C)(O)[C@H]3C[C@@H]12; assay: Activity of tetracycline efflux transporter TetA(B) Asp190Cys mutant in Escherichia coli DH5alpha membrane vesicles assessed as [3H]tetracycline uptake; type: cell membranes
[7] = substrate: CN(C)[C@@H]1C(O)=C(C(N)=O)C(=O)[C@@]2(O)C(O)=C3C(=O)c4c(O)cccc4[C@@](C)(O)[C@H]3C[C@@H]12; assay: Activity of tetracycline efflux transporter TetA(B) Asp190Cys mutant in Escherichia coli DH5alpha membrane vesicles assessed as [3H]tetracycline uptake per mg of protein; type: cell membranes

C[C@H]1c2cccc(O)c2C(=O)C2=C(O)[C@]3(O)C(=O)C(C(N)=O)=C(O)[C@@H](N(C)C)[C@@H]3[C@@H](O)[C@@H]21.O [DOXYCYCLINE]
MIC (Escherichia coli [1]): 1.25 µg/mL
MIC (Escherichia coli [2]): 14 µg/mL
MIC (Escherichia coli [3]): 32 µg/mL

CN(C)[C@@H]1C(O)=C(C(N)=O)C(=O)[C@@]2(O)C(O)=C3C(=O)c4c(O)cccc4[C@@](C)(O)[C@H]3C[C@@H]12 [TETRACYCLINE]
MIC (Escherichia coli [1]): 0.75 µg/mL (≈ 1.69 µM)
MIC (Escherichia coli [2]): 11 µg/mL (≈ 24.8 µM)
MIC (Escherichia coli [3]): 128 µg/mL (≈ 288 µM)

B1: Tetracycline resistance protein, class B (Escherichia coli), P02980 (protein)
chain: MNSSTKIALVITLLDAMGIGLIMPVLPTLLREFIASEDIANHFGVLLALYALMQVIFAPWLGKMSDRFGRRPVLLLSLIGASLDYLLLAFSSALWMLYLGRLLSGITGATGAVAASVIADTTSASQRVKWFGWLGASFGLGLIAGPIIGGFAGEISPHSPFFIAALLNIVTFLVVMFWFRETKNTRDNTDTEVGVETQSNSVYITLFKTMPILLIIYFSAQLIGQIPATVWVLFTENRFGWNSMMVGFSLAGLGLLHSVFQAFVAGRIATKWGEKTAVLLGFIADSSAFAFLAFISEGWLVFPVLILLAGGGIALPALQGVMSIQTKSHQQGALQGLLVSLTNATGVIGPLLFAVIYNHSLPIWDGWIWIIGLAFYCIIILLSMTFMLTPQAQGSKQETSA
Vmax [4]: 1270 pmol/min
Km [5]: 22 µM

B2: Tetracycline resistance protein, class B (Escherichia coli), P02980 D190C (protein)
chain: B1 chain with D190C
Km [6]: 83 µM
Vmax [7]: 1330 pmol/min
